Assay results as given in PubChem BioAssay AID248 (DTP/NCI, 2004).
Values joined by “and” are separate entries in the source; they are usually repeats but may differ in a detail not shown here. Equal entries are not always repeated. Toxic doses and inconclusive results are not listed. Cut-off read from the data, not from the text of the source: active = T/C of 150% or more; inactive = T/C below 125%.

System: L1210 leukemia ip in BDF1 mice, survival T/C
Experiment: NCI In Vivo Anticancer Drug Screen. Data for tumor model L1210 Leukemia (intraperitoneal) in B6D2F1 (BDF1) mice
Conditions: higher = longer survival
Outline: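 Antitumor effect is assessed in tumor-bearing animals. Survival in the compound arm is compared with a vehicle-dosed control arm and expressed as their quotient.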

[1] = endpoint: mean survival time, dose: 100.0 mg/kg/injection, schedule: Q04DX003 (ip), vehicle: saline with Tween-80
[2] = endpoint: mean survival time, dose: 200.0 mg/kg/injection, schedule: Q04DX003 (ip), vehicle: saline with Tween-80
[3] = endpoint: mean survival time, dose: 400.0 mg/kg/injection, schedule: Q04DX003 (ip), vehicle: saline with Tween-80

Measured: T/C

CS(=O)(=O)OCCCCOS(C)(=O)=O
inactive: endpoint: mean survival time, dose: 1.5 mg/kg/injection, schedule: Q04DX002 (ip), vehicle: saline with Tween-80 95 % of control and 106 % of control | endpoint: mean survival time, dose: 1.7 mg/kg/injection, schedule: Q01DX009 (ip), vehicle: saline with Tween-80 96 % of control and 108 % of control | endpoint: mean survival time, dose: 2.9 mg/kg/injection, schedule: Q04DX002 (ip), vehicle: saline with Tween-80 100 % of control and 107 % of control | endpoint: mean survival time, dose: 3.3 mg/kg/injection, schedule: Q01DX009 (ip), vehicle: saline with Tween-80 96 % of control and 105 % of control | endpoint: mean survival time, dose: 3.75 mg/kg/injection, schedule: Q01DX001 (ip), vehicle: carboxymethylcellulose (CMC) 103 % of control | endpoint: mean survival time, dose: 5.8 mg/kg/injection, schedule: Q04DX002 (ip), vehicle: saline with Tween-80 98 % of control and 102 % of control | endpoint: mean survival time, dose: 6.25 mg/kg/injection, schedule: Q01DX010 (ip), vehicle: saline 108 % of control and 118 % of control | endpoint: mean survival time, dose: 6.5 mg/kg/injection, schedule: Q01DX009 (ip), vehicle: saline with Tween-80 99 % of control and 105 % of control | endpoint: mean survival time, dose: 7.5 mg/kg/injection, schedule: Q01DX001 (ip), vehicle: carboxymethylcellulose (CMC) 112 % of control | endpoint: mean survival time, dose: 9.5 mg/kg/injection, schedule: Q02DX010 (ip), vehicle: carboxymethylcellulose (CMC) 111 % of control | endpoint: mean survival time, dose: 10.0 mg/kg/injection, schedule: Q01DX Z (ip), vehicle: carboxymethylcellulose (CMC) 104 % of control | endpoint: mean survival time, dose: 10.0 mg/kg/injection, schedule: Q02DX010 (ip), vehicle: carboxymethylcellulose (CMC) 97 % of control | endpoint: mean survival time, dose: 10.0 mg/kg/injection, schedule: Q02DX010 (ip), vehicle: other 112 % of control | endpoint: mean survival time, dose: 11.5 mg/kg/injection, schedule: Q04DX002 (ip), vehicle: saline with Tween-80 98 % of control and 109 % of control | endpoint: mean survival time, dose: 12.5 mg/kg/injection, schedule: Q01DX009 (ip), vehicle: saline 97 % of control and 104 % of control and 88 % of control | endpoint: mean survival time, dose: 12.5 mg/kg/injection, schedule: Q01DX010 (ip), vehicle: saline 116 % of control and 118 % of control | endpoint: mean survival time, dose: 12.5 mg/kg/injection, schedule: Q01DX Z (ip), vehicle: carboxymethylcellulose (CMC) 93 % of control and 102 % of control | endpoint: mean survival time, dose: 13.0 mg/kg/injection, schedule: Q01DX009 (ip), vehicle: saline with Tween-80 99 % of control and 101 % of control | endpoint: mean survival time, dose: 14.0 mg/kg/injection, schedule: Q02DX010 (ip), vehicle: carboxymethylcellulose (CMC) 96 % of control | endpoint: mean survival time, dose: 15.0 mg/kg/injection, schedule: Q01DX001 (ip), vehicle: carboxymethylcellulose (CMC) 101 % of control | endpoint: mean survival time, dose: 15.0 mg/kg/injection, schedule: Q02DX010 (ip), vehicle: carboxymethylcellulose (CMC) 98 % of control | endpoint: mean survival time, dose: 15.0 mg/kg/injection, schedule: Q02DX010 (ip), vehicle: other 104 % of control | endpoint: mean survival time, dose: 20.0 mg/kg/injection, schedule: Q01DX Z (ip), vehicle: carboxymethylcellulose (CMC) 103 % of control | endpoint: mean survival time, dose: 22.0 mg/kg/injection, schedule: Q02DX010 (ip), vehicle: carboxymethylcellulose (CMC) 103 % of control and 113 % of control | endpoint: mean survival time, dose: 22.0 mg/kg/injection, schedule: Q02DX010 (ip), vehicle: other 106 % of control | endpoint: mean survival time, dose: 23.0 mg/kg/injection, schedule: Q04DX002 (ip), vehicle: saline with Tween-80 98 % of control and 100 % of control | endpoint: mean survival time, dose: 25.0 mg/kg/injection, schedule: Q01DX009 (ip), vehicle: saline with Tween-80 101 % of control and 115 % of control | endpoint: mean survival time, dose: 25.0 mg/kg/injection, schedule: Q01DX009 (ip), vehicle: saline 96 % of control (2×) and 111 % of control | endpoint: mean survival time, dose: 25.0 mg/kg/injection, schedule: Q01DX Z (ip), vehicle: carboxymethylcellulose (CMC) 102 % of control and 105 % of control | endpoint: mean survival time, dose: 27.0 mg/kg/injection, schedule: Q01DX001 (ip), vehicle: carboxymethylcellulose (CMC) 96 % of control | endpoint: mean survival time, dose: 30.0 mg/kg/injection, schedule: Q01DX001 (ip), vehicle: carboxymethylcellulose (CMC) 106 % of control | endpoint: mean survival time, dose: 33.0 mg/kg/injection, schedule: Q02DX010 (ip), vehicle: other 112 % of control | endpoint: mean survival time, dose: 40.0 mg/kg/injection, schedule: Q01DX Z (ip), vehicle: carboxymethylcellulose (CMC) 110 % of control | endpoint: mean survival time, dose: 40.0 mg/kg/injection, schedule: Q01DX Z (oral), vehicle: saline 94 % of control | endpoint: mean survival time, dose: 41.0 mg/kg/injection, schedule: Q01DX001 (ip), vehicle: carboxymethylcellulose (CMC) 103 % of control | endpoint: mean survival time, dose: 46.0 mg/kg/injection, schedule: Q04DX002 (ip), vehicle: saline with Tween-80 104 % of control and 107 % of control | endpoint: mean survival time, dose: 49.0 mg/kg/injection, schedule: Q01DX009 (ip), vehicle: saline with Tween-80 103 % of control and 121 % of control | endpoint: mean survival time, dose: 50.0 mg/kg/injection, schedule: Q01DX009 (ip), vehicle: saline 98 % of control and 109 % of control and 120 % of control | endpoint: mean survival time, dose: 50.0 mg/kg/injection, schedule: Q01DX010 (ip), vehicle: saline 111 % of control and 88 % of control | endpoint: mean survival time, dose: 50.0 mg/kg/injection, schedule: Q01DX Z (ip), vehicle: carboxymethylcellulose (CMC) 103 % of control | endpoint: mean survival time, dose: 50.0 mg/kg/injection, schedule: Q02DX010 (ip), vehicle: carboxymethylcellulose (CMC) 101 % of control and 107 % of control | endpoint: mean survival time, dose: 50.0 mg/kg/injection, schedule: Q02DX010 (ip), vehicle: other 115 % of control | endpoint: mean survival time, dose: 60.0 mg/kg/injection, schedule: Q01DX001 (ip), vehicle: carboxymethylcellulose (CMC) 110 % of control | endpoint: mean survival time, dose: 61.0 mg/kg/injection, schedule: Q01DX001 (ip), vehicle: carboxymethylcellulose (CMC) 98 % of control | endpoint: mean survival time, dose: 75.0 mg/kg/injection, schedule: Q02DX010 (ip), vehicle: carboxymethylcellulose (CMC) 89 % of control | endpoint: mean survival time, dose: 80.0 mg/kg/injection, schedule: Q01DX Z (oral), vehicle: saline 105 % of control | endpoint: mean survival time, dose: 100.0 mg/kg/injection, schedule: Q01DX009 (ip), vehicle: saline 88 % of control | endpoint: mean survival time, dose: 100.0 mg/kg/injection, schedule: Q01DX Z (ip), vehicle: carboxymethylcellulose (CMC) 93 % of control | [1] 101 % of control | endpoint: mean survival time, dose: 120.0 mg/kg/injection, schedule: Q01DX001 (ip), vehicle: carboxymethylcellulose (CMC) 100 % of control | endpoint: mean survival time, dose: 160.0 mg/kg/injection, schedule: Q01DX Z (oral), vehicle: saline 108 % of control | [2] 104 % of control | [3] 104 % of control | endpoint: median survival time, dose: 10.0 mg/kg/injection, schedule: Q01DX009 (ip), vehicle: saline 105 % of control | endpoint: median survival time, dose: 12.5 mg/kg/injection, schedule: Q01DX009 (ip), vehicle: saline 95 % of control and 112 % of control | endpoint: median survival time, dose: 20.0 mg/kg/injection, schedule: Q01DX009 (ip), vehicle: saline 100 % of control | endpoint: median survival time, dose: 25.0 mg/kg/injection, schedule: Q01DX009 (ip), vehicle: saline 110 % of control and 112 % of control | endpoint: median survival time, dose: 40.0 mg/kg/injection, schedule: Q01DX009 (ip), vehicle: saline 100 % of control | endpoint: median survival time, dose: 50.0 mg/kg/injection, schedule: Q01DX009 (ip), vehicle: saline 100 % of control and 112 % of control | endpoint: median survival time, dose: 80.0 mg/kg/injection, schedule: Q01DX009 (ip), vehicle: saline 110 % of control | endpoint: median survival time, dose: 100.0 mg/kg/injection, schedule: Q01DX009 (ip), vehicle: saline 100 % of control | endpoint: median survival time, dose: 160.0 mg/kg/injection, schedule: Q01DX009 (ip), vehicle: saline 100 % of control

O=S(=O)(NCCCl)c1cc(Cl)c(Cl)cc1Cl
inactive: endpoint: mean survival time, dose: 100.0 mg/kg/injection, schedule: Q01DX001 (ip), vehicle: carboxymethylcellulose (CMC) 97 % of control | endpoint: mean survival time, dose: 200.0 mg/kg/injection, schedule: Q01DX001 (ip), vehicle: carboxymethylcellulose (CMC) 94 % of control | endpoint: mean survival time, dose: 400.0 mg/kg/injection, schedule: Q01DX001 (ip), vehicle: carboxymethylcellulose (CMC) 94 % of control

Cc1cc(C)c(O)c(Br)c1
inactive: endpoint: mean survival time, dose: 100.0 mg/kg/injection, schedule: Q04DX002 (ip), vehicle: saline with Tween-80 103 % of control | endpoint: mean survival time, dose: 200.0 mg/kg/injection, schedule: Q04DX002 (ip), vehicle: saline with Tween-80 96 % of control | endpoint: mean survival time, dose: 400.0 mg/kg/injection, schedule: Q04DX002 (ip), vehicle: saline with Tween-80 107 % of control

c1ccc([C@H]2N[C@H]2c2ccccc2)cc1
inactive: endpoint: mean survival time, dose: 100.0 mg/kg/injection, schedule: Q04DX003 (ip), vehicle: Klucel (hydroxypropylcellulose) (HPC) 96 % of control | endpoint: mean survival time, dose: 200.0 mg/kg/injection, schedule: Q04DX003 (ip), vehicle: Klucel (hydroxypropylcellulose) (HPC) 95 % of control | endpoint: mean survival time, dose: 400.0 mg/kg/injection, schedule: Q04DX003 (ip), vehicle: Klucel (hydroxypropylcellulose) (HPC) 98 % of control

Cc1cc(=O)c2cc(C(=O)c3ccccc3)ccc2[nH]1
inactive: endpoint: mean survival time, dose: 100.0 mg/kg/injection, schedule: Q01DX001 (ip), vehicle: saline 101 % of control | endpoint: mean survival time, dose: 200.0 mg/kg/injection, schedule: Q01DX001 (ip), vehicle: saline 98 % of control | endpoint: mean survival time, dose: 400.0 mg/kg/injection, schedule: Q01DX001 (ip), vehicle: saline 107 % of control

Cc1ccc(S(=O)(=O)C[n+]2cc(C)cc(C)c2)cc1
inactive: endpoint: mean survival time, dose: 100.0 mg/kg/injection, schedule: Q04DX003 (ip), vehicle: saline 95 % of control | endpoint: mean survival time, dose: 200.0 mg/kg/injection, schedule: Q04DX003 (ip), vehicle: saline 103 % of control

CC(O)CN(CC(C)O)c1ccccc1 (stereo unspecified)
inactive: endpoint: mean survival time, dose: 100.0 mg/kg/injection, schedule: Q01DX009 (ip), vehicle: saline with Tween-80 102 % of control | [1] 102 % of control | endpoint: mean survival time, dose: 200.0 mg/kg/injection, schedule: Q01DX009 (ip), vehicle: saline with Tween-80 94 % of control | [2] 103 % of control | [3] 101 % of control
